Values after ≈ are worked out from the molar mass of the structure shown. Values joined by “and” are separate entries in the source; they are usually repeats but may differ in a detail not shown here. Equal values may be shown once. Read-outs that look alike come from different tables or passages of the source.
How the values were obtained:
in vitro = settings: human, Caco-2
Source text: Human epithelial colorectal adenocarcinoma cell line (Caco-2) was obtained from the American Type Culture Collection (ATCC), and cultured according to directions. Caco-2 cells grown in tissue culture flasks were trypsinized, suspended in medium, and the suspensions were applied to wells of a collagen-coated BioCoat Cell Environment in 24-well format (BD Biosciences) at 24,500 cells per well. The cells were allowed to grow and differentiate for three weeks, feeding at 2-day intervals. […] For Apical to Basolateral (A->B) permeability, the test agent (1 mg/mL)+probe substrate were added to the apical (A) side, test agent was added to the Basolateral (B) side, and amount of permeation was determined on the B side. For Basolateral to Apical (B>A) permeability, the test agent+probe substrate were added to the B side, test agent was added to the A side, and the amount of permeation of probe substrate was determined on the A side. Buffer alone, without test agent, was used as a negative control. […] Dosing solutions were prepared by dissolving the test agent in Transport buffer, then adding Lucifer yellow to a portion as indicated. CaCo-2 cells were incubated with these buffers for 2 h., and the receiver side buffer is removed for analysis by LC/MS/MS.
To verify the CaCo-2 cell monolayers were properly formed, aliquots of the cell buffers were analyzed by fluorescence to determine the transport of the impermeable dye Lucifer Yellow.
Where dQ/dt is the rate of permeation, C0 is the initial concentration of test agent, and A is the area of the monolayer.
From bidirectional permeability studies, the efflux ration (RE) is also calculated:
The P-gp inhibition data were calculated from the permeability results for the probe substrate as indicated. Ranitidine (low permeability) and warfarin (high permeability) are included as controls to ensure the proper performance of the test system.

[1] = for Curcumin content of reconstituted solution: 100 mg in 10 mL water
Description: The water solutions containing the complexes of the water-insoluble compound and the solubilizer were dried to remove the water and to form a powder. […] Any method of water removal could be used, including freeze-drying, spray-drying, or oven drying. […] The amount of added water can be adjusted to achieve the desired concentration of the compound.
The 30% and 40% curcumin-rubusoside water solution (10 mL) were freeze-dried to powder. […] Part of this powder (100 mg) was re-constituted in 10 mL water. […] (FIG. 13) Similarly, the 30% curcumin-rebusoside solution was freeze-dried to powder, and 100 mg powder reconstituted with 10 mL water.
The powder was reconstituted using 1 ml, 0.5 ml, 0.25 ml or 0.1 ml water, followed by 60 min sonication and a brief vortex. […] Paclitaxel concentrations were determined using a standard paclitaxel calibration curve with paclitaxel standard in methanol. […] (FIG. 15).

physchem = settings: 25 °C, aqueous with cosolvent or surfactant or cyclodextrin, thermodynamic from solid
[2] = room temperature; The Merck Index, 1996; cited from earlier work
P-gp = target: T1, P-gp (Homo sapiens, UniProt P08183); experiment: P-gp inhibition in Caco-2 assay with digoxin probe substrate; assay type: in vitro ADME; settings: Caco-2 cell monolayers, probe digoxin 5 µM, test conc 1 mg/mL (1.558 mM), 5 μM digoxin
T1 construct: endogenous in cells; host or cells: Caco-2 (ATCC), differentiated for three weeks on collagen-coated inserts
T1 sequence (P08183 whole entry): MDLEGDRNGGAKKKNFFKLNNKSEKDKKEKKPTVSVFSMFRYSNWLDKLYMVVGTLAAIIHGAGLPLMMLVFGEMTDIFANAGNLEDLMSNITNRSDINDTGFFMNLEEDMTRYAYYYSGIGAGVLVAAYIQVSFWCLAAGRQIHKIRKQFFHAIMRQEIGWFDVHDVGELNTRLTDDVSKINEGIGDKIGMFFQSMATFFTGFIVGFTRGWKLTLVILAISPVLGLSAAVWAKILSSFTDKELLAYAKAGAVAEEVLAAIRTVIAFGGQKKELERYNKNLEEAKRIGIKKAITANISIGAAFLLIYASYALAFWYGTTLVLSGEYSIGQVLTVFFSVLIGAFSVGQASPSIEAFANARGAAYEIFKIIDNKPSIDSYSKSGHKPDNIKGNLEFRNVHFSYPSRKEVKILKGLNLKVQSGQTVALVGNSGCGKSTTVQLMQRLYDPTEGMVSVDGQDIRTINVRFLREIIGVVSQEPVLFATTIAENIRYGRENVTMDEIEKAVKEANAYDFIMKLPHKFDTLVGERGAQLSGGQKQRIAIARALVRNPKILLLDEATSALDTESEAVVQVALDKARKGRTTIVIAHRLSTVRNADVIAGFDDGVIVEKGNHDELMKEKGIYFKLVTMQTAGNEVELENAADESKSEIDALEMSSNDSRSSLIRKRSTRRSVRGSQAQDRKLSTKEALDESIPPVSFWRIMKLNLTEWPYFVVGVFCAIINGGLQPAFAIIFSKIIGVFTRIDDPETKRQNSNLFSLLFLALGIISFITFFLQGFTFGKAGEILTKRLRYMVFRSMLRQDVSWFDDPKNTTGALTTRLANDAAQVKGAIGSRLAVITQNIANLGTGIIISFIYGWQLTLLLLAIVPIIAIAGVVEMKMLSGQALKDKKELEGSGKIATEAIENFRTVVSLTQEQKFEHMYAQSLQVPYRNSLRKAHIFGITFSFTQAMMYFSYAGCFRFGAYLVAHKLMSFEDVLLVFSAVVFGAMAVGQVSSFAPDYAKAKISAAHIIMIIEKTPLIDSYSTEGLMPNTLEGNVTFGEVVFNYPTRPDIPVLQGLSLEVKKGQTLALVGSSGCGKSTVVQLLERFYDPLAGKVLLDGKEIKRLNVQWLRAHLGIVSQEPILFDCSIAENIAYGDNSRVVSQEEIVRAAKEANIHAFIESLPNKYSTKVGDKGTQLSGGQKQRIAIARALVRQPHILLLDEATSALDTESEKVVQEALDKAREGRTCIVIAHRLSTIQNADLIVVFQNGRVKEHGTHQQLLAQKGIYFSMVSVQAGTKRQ
Description: Test agent powders were stored at −20° C. […] After separation on a C18 reverse phase HPLC column (Agilent, Waters, or equivalent) using an acetonitrile-water gradient system, peaks were analyzed by mass spectrometry (MS) using ESI ionization in MRM mode.
Human epithelial colorectal adenocarcinoma cell line (Caco-2) was obtained from the American Type Culture Collection (ATCC), and cultured according to directions. Caco-2 cells grown in tissue culture flasks were trypsinized, suspended in medium, and the suspensions were applied to wells of a collagen-coated BioCoat Cell Environment in 24-well format (BD Biosciences) at 24,500 cells per well. […] For Apical to Basolateral (A->B) permeability, the test agent (1 mg/mL)+probe substrate were added to the apical (A) side, test agent was added to the Basolateral (B) side, and amount of permeation was determined on the B side. For Basolateral to Apical (B>A) permeability, the test agent+probe substrate were added to the B side, test agent was added to the A side, and the amount of permeation of probe substrate was determined on the A side. […]
To verify the CaCo-2 cell monolayers were properly formed, aliquots of the cell buffers were analyzed by fluorescence to determine the transport of the impermeable dye Lucifer Yellow. […]
From bidirectional permeability studies, the efflux ration (RE) is also calculated: […]

[3] = Solubility in water without solubilizer; assay type: physicochemical
[4] = Stability of curcumin-rubusoside water solutions (dilution with water, storage, pH); assay type: physicochemical
Description: This is important because the concentrated curcumin solution may be diluted in a biological system, e.g., in the stomach fluid.
Various concentrations of the solubilizer rubusoside were prepared in water: 0%, 1%, 2.5%, 5%, 10%, 20%, 30%, and 40% w/v. Curcumin (100 mg) was weighed and added into separate flasks, and an equal amount (10 ml) of a rubusoside solution was added to each flask. The prepared water solutions were vortexed briefly and then sonicated for 60 min at temperature of 50° C. These water solutions were subjected to a heat and pressure treatment composed of 121° C. and 1.1 to 1.2 atm for 60 min, and then placed in an incubator set at 25° C. for at least 24 hr. The solutions were then centrifuged at 4000 rpm for 10 min. The supernatant solution was passed through a 0.45 μm filter and analyzed for the concentration of either the water-insoluble compound or rubusoside by HPLC or LC/MS, as described above in Example 2. Quantification was done by comparing to a standard solution of a known amount in methanol. In the presence of 0%, 1%, 2.5%, 5%, 10%, 20%, 30%, and 40% w/v of rubusoside, the water solutions contained 0, 28, 267, 762, 1330, 2914, 4449, and 6004 μg/mL curcumin, respectively. […] When adjusted to about pH 7.0 by the addition of 1× phosphate buffered saline (PBS) powder, the solutions remained stable for at least 48 hours. Thus the reconstituted solution with saline would be sufficiently stable at pH 7.0 for use in a clinic setting.

[5] = Concentration of curcumin dissolved in rebaudioside A water solution, HPLC; assay type: physicochemical; settings: 5% w/v rebaudioside A
Source text: A new method (the “Sonication—autoclave method”) was used to solublize most of the compounds, a method different from that reported in International Patent Application No. PCT/US2009/040324 (the “Standard Shake Flask method”). The main difference was the use of higher temperatures and elevated atmospheric pressures. The steps of the new enhanced process are as follows. A water-insoluble compound was weighed into multiple flasks, divided into two groups—a control group and an experimental group. Each experimental flask received a known amount of the solubilizing agent, e.g. rubusoside, being tested. The control flasks contained only the water-insoluble compound. The same volume, 10 mL, unless otherwise indicated, of deionized and distilled water was added to each flask. Alternatively, water solutions containing a known percentage of solubilizer (e.g., 5% or 10% w/v) were prepared. The solubilizer-water solutions were added directly to the experimental flasks containing the water-insoluble compound. In either case, the flasks were then vortexed briefly and sonicated for 60 min at 50° C. Sonication is a process of applying sound (usually ultrasound) energy to agitate particles in a sample. Using this energy, inter-molecular interactions are facilitated. After sonication, the solution was then subjected to heat and pressure. […] The supernatant solution was passed through a 0.45 μm filter and analyzed for the concentration of the water-insoluble compound or solubilizer by HPLC or LC/MS, as described below.
To test if the enhanced process also applies to another solubilizing agent, rebuadioside A was used. […] The water solutions were filtered by 0.45 μM filters and analyzed on HPLC. Quantification was done by comparing to a standard solution of a known amount of curcumin in methanol. […] Curcumin concentration was determined using a standard curcumin solution of 196.8 μg/mL. […]

[6] = system: human pancreatic cancer cells (PANC-1); experiment: Growth inhibition of PANC-1 cells by re-constituted curcumin water solution; assay type: cell-based
Description: The pH-adjusted water solution was then co-cultured with human pancreatic cancer cells (PANC-1) for 72 hours in a standard cell culture medium. […] All culture materials were purchased from Invitrogen Corporation (Carlsbad, Calif.). […] (FIG. 14).

[7] = system: human pancreatic cancer cells (PANC-1); settings: literature value; read-out: IC50 for Panc-1 reported by Holcomb et al.; cited from earlier work

## CC(=O)CC(c1ccccc1)c1c(O)c2ccccc2oc1=O (stereo not shown) [Warfarin, warfarin]
In vitro
  Papp A→B at 2 h, 10 μM: 33.5 ×10⁻⁶ cm/s

## Oc1ccc(C=Cc2cc(O)cc(O)c2)cc1 [resveratrol]
[1]
  Reconstitution of dried powder: successfully reconstituted

## C=C1CC[C@H](O)C/C1=C/C=C1\CCC[C@]2(C)[C@@H]([C@H](C)CCCC(C)C)CC[C@@H]12 [vitamin D3, cholecalciferol]
physchem
  solubility: 4.5 mg/mL (≈ 11.7 mM)
Mixed vitamins A, D, E, K in 10% rubusoside
  Concentration in re-composed single water solution: 4.7 µg/mL

## O=C(O)c1cc(O)c(O)c(O)c1 [Gallic acid]
[2]
  Solubility in water: about 11 mg/ml

## C=C1C[C@@]23CC[C@H]4[C@@](C)(CCC[C@@]4(C)C(=O)O[C@@H]4O[C@H](CO)[C@@H](O)[C@H](O)[C@H]4O)[C@@H]2CC[C@]1(O[C@@H]1O[C@H](CO)[C@@H](O)[C@H](O)[C@H]1O)C3 [Rubusoside, b-D-glucosyl ester of 13-O-b-D-glucosyl-steviol]
P-gp
  inhibition at 2 h, 1 mg/mL: 59%
[3]; 25° C.
  solubility: ~400 mg/mL (≈ 622 mM)
[3]; 37° C.
  solubility: ~800 mg/mL (≈ 1240 mM)

## CNC(=C[N+](=O)[O-])NCCSCc1ccc(CN(C)C)o1 [Ranitidine]
In vitro
  Papp A→B at 2 h, 10 μM: 1.7 ×10⁻⁶ cm/s

## COc1cc(/C=C/C(=O)CC(=O)/C=C/c2ccc(O)c(OC)c2)ccc1O [curcumin]
[4]; Stock, 40.0% w/v rubusoside
  Curcumin in water solution: 6004 µg/mL
[4]; stock diluted 1:1 with water, 20.0% rubusoside
  Curcumin in water solution: 2985 µg/mL
[4]; stock diluted 1:3 with water, 10.0% rubusoside
  Curcumin in water solution: 1489 µg/mL
[4]; stock diluted 1:7 with water, 5.0% rubusoside
  Curcumin in water solution: 742 µg/mL
[4]; stock diluted 1:15 with water, […] rubusoside
  Curcumin in water solution: 358 µg/mL
[4]; stock diluted 1:39 with water, 1.0% rubusoside
  Curcumin in water solution: 135 µg/mL
[5]
  Fold increase, enhanced vs standard process: ~2 fold
[5]; enhanced process
  Curcumin in water solution: 302 µg/mL
[5]; standard process
  Curcumin in water solution: 156 µg/mL
[6]; 6.25 μg/mL curcumin, 72 hours
  Growth inhibition: strong inhibition
[6]; 72 hours
  Curcumin concentration giving maximum growth inhibition: ≥ 12.5 µg/mL
[6]; Homo sapiens, PANC-1, re-constituted curcumin-rubusoside solution, pH 7.2, 72 hours
  IC50: ~5.5 µg/mL and ~14.9 µM
[6]; curcumin below 3.13 μg/mL, 72 hours
  Growth inhibition: no inhibitory effect
[7]
  IC50: 17 µM
24 h
  Curcumin concentration: 0.34 mg/mL
[1]
  Reconstitution of dried powder: successfully reconstituted
[1]; powder from 30% rubusoside solution
  Curcumin content of reconstituted solution: 1.87 % w/w
[1]; powder from 40% rubusoside solution
  Curcumin content of reconstituted solution: 2.03 % w/w

## C[C@H]1O[C@@H](O[C@H]2[C@@H](O)C[C@H](O[C@H]3[C@@H](O)C[C@H](O[C@H]4CC[C@@]5(C)[C@H](CC[C@@H]6[C@@H]5C[C@@H](O)[C@]5(C)[C@@H](C7=CC(=O)OC7)CC[C@]65O)C4)O[C@@H]3C)O[C@@H]2C)C[C@H](O)[C@@H]1O [Digoxin, digoxin]
In vitro
  Papp A→B at 2 h, 5 μM: 1.4 ×10⁻⁶ cm/s
  Papp B→A at 2 h, 5 μM: 18.7 ×10⁻⁶ cm/s
  efflux ratio at 2 h, 5 μM: 13.7

## CC(=O)[C@H]1CC[C@H]2[C@@H]3CCC4=CC(=O)CC[C@]4(C)[C@H]3CC[C@]12C [progesterone]
[1]
  Reconstitution of dried powder: successfully reconstituted

## CC[C@@]1(O)C(=O)OCc2c1cc1n(c2=O)Cc2cc3ccccc3nc2-1 [camptothecin]
10% w/v rubusoside
  Fold increase, enhanced vs standard process: more than 3 fold
10% w/v rubusoside, enhanced process (Sonication-Autoclave)
  Concentration in water solution: 247 µg/mL
10% w/v rubusoside, standard process (Shake-flask)
  Concentration in water solution: 80 µg/mL
